Measurements from publication PMC6261997, “Synergistic enzymatic and bioorthogonal reactions for selective prodrug activation in living systems” (Nature Communications, 2018).

Assays:
[1] = system: Saos-2 cells; test: Clonogenic assay, Saos-2 cells; format: cell-based; settings: pre-treated with 500 μM 2 for 6 h
Protocol: Supplementary Figure 17. Clonogenic assay of different cell lines before and after treatment with 2. HeLa cells, HUVECs and Saos-2 cells were seeded at density of 400 cells per well, CCC-HEH-2 cells were seeded at density of 200 cells per well. Cells were incubated with 500 µM 2 for 6 h in the treatment groups. Cells were not treated with compound 2 in the control groups. Colonies were harvest approximately 10 days after seeding. Scale bar, 10 mm.
Supplementary Figure 18. Cytotoxicity of activated Dox against HeLa cells and HUVECs. HeLa cells or HUVECs at the density of 3x10^3 cells per well were incubated with 100 µL of pre-warmed medium containing compound 2 at 300 or 500 µM for 6 h. After washing with PBS, 100 µL of 0.0001-10 µM TCO-Dox was added. After 72 h, cell proliferation was assessed by the MTT assay (n= 6). Error bars indicate standard […]
Supplementary Figure 19. […] At each time point, the remaining 2, corresponding generated 3 and remaining TCO-Dox were determined by UPLC-MS/MS. […]
Clonogenic assay of cells in vitro: Clonogenic assay was performed according to the standard protocol.6 2×10^5 attached cells were treated with 500 µM of 2 for 6 h in culture dishes. Cells were then detached, re-suspended in cultural medium and counted accurately. […]
The glutaraldehyde crystal violet mixture was removed carefully. […] The number of the colonies was counted using a stereomicroscope. […]

[2] = system: HeLa tumours; test: Tumour inhibition test, subcutaneous HeLa xenograft; format: in vivo, BALB/c nude mice
Protocol: All animal studies were performed in accordance with the Institutional Animal Use and Care Regulations approved by the National Institutes of Health Clinical Center/Animal Care and Use Committee (NIH CC/ACUC). Athymic female nude mice (5–6 weeks old) were purchased from Beijing Huafukang Bioscience Co., Ltd., and raised in a specific-pathogen-free barrier facility. Tumour-bearing mice were established by subcutaneously injecting a suspension of 10^6 HeLa cells per mouse into the front flank of each nude mouse.
After 14 days, the mice were sacrificed.

[3] = system: HeLa cells; test: Intracellular Tz accumulation by fluorescence liberation from TCO-CMR, HeLa cells; format: cell-based
Protocol: Next, we tested the intracellular accumulation of Tz via EISA in an attempt to differentiate cancer cells from normal cells. First, we investigated the accumulation of Tz in HeLa cells and HUVECs over time via fluorescence liberation from TCO-CMR (Fig. 3a). […] The cells were then washed with PBS thoroughly before the addition of an excessive amount of TCO-CMR (100 μL, 50 μM), and the reaction of TCO-CMR with the intracellular accumulated Tz was allowed to proceed for up to 24 h (Supplementary Fig. 8). In this experimental setting, the total liberated fluorescence was proportional to the amount of 3 accumulated inside the cells. […] Therefore, the optimized concentration of 2 (e.g. 500 μM) and incubation time (e.g. 6 h) were selected to differentiate between cancer and normal cells according to liberated fluorescence intensity (Fig. 3c). This differentiation was dependent on the considerably different phosphatase activity between these cell lines (Supplementary Fig. 11), allowing EISA to specifically occur in cancer cells as opposed to normal cells.
All cells were purchased from the National Infrastructure of Cell Line Resource (Beijing, China). HeLa cells, HUVECs and CCC-HEH-2 cells were cultured in a humidified CO2 (5%) incubator at 37 °C in DMEM supplemented with 10% foetal bovine serum (FBS, Gibco) and 1% Pen Strep (PS, Gibco). Saos-2 cells were cultured in a humidified CO2 (5%) incubator at 37 °C in McCoy’s 5A medium supplemented with 10% FBS and 1% PS. Cells were plated in flat-bottom 96-well plates (Corning) at a density of 10^4 cells per well and allowed to attach for 12 h. Then, the culture medium was replaced with 100 μL of pre-warmed medium containing 2 at different concentrations (100–500 μM). After incubation for different durations (1–24 h), the cells were rinsed with PBS, and then 100 μL of 50 μM TCO-CMR (dissolved in PBS) was added for real-time detection of the fluorescence intensity of coumarin in a plate reader (Perkin Elmer).

Cc1nnc(-c2ccc(CC(=O)NCCCCC(NC(=O)Cc3ccc4ccccc4c3)C(=O)NC(Cc3ccc(OP(=O)(O)O)cc3)C(=O)NC(Cc3ccccc3)C(=O)O)cc2)nn1 (centres unmarked) [compound 2, NapK(Tz)YpF]
Surviving Fraction, Saos-2 [1]: 0±0% | histological examination of dissected tumours (HE staining) ([2]; after treatment for 14 days): the HeLa cells remained normal | tumour growth ([2]; i.v., three courses (day 0, 3, 6), 50 mg kg^−1 2, 30 mg kg^−1 TCO-Dox, 5 mg kg^−1 Dox, or 50 mg kg^−1 2 then 30 mg kg^−1 TCO-Dox after 2 h): rapid growth similar to that observed in the saline control group | incubation time at which liberated fluorescence reaches maximum value ([3]; 500 μM 2, then 50 μM TCO-CMR): approximately 6 h | fluorescence emission of liberated coumarin in HeLa cells ([3]; pre-incubated with 400 or 500 μM 2): increased significantly
